According to the supplement of paper PMC8882468:

Test system: HCI-001 (organoid from a triple-negative breast cancer xenograft)
Test: CTG-3D luminescence at 96 h relative to day-0 seeding control (ratio to day 0); higher = more growth / less cytotoxicity; PDxO 3D drug screen, 96 h, CTG-3D normalised to day-0 seeding control.
Conditions: 0.005 µM; days in culture: 269

Point of comparison: `CC(C)(C(=O)NCC(F)(F)C(F)(F)F)C(=O)N[C@@H]1C(=O)Nc2ccccc2-c2ccccc21`, “CTG-3D luminescence at 96 h” value 1.38. Against it:
- CN(Cc1cnc2nc(N)nc(N)c2n1)c1ccc(C(=O)N[C@@H](CCC(=O)O)C(=O)O)cc1 [methotrexate] — higher, 1.53
- C=CCn1c(=O)c2cnc(Nc3ccc(N4CCN(C)CC4)cc3)nc2n1-c1cccc(C(C)(C)O)n1 [adavosertib] — higher, 1.59
- C[C@@H]1COCCN1c1cc(C2([S@](C)(=N)=O)CC2)nc(-c2cc[nH]c3nccc2-3)n1 [ceralasertib] — higher, 1.82
- CCN1CCN(Cc2ccc(Nc3ncc(F)c(-c4cc(F)c5nc(C)n(C(C)C)c5c4)n3)nc2)CC1 [abemaciclib] — higher, 1.69

Same assay, conditions: 0.005 µM; days in culture: 327

Point of comparison: `CC(C)(C(=O)NCC(F)(F)C(F)(F)F)C(=O)N[C@@H]1C(=O)Nc2ccccc2-c2ccccc21`, “CTG-3D luminescence at 96 h” value 1.54. Against it:
- COc1cccc2c1C(=O)c1c(O)c3c(c(O)c1C2=O)C[C@@](O)(C(=O)CO)C[C@@H]3O[C@H]1C[C@H](N)[C@H](O)[C@H](C)O1 [doxorubicin] — higher, 1.57
- O=C(O)C1(C(=O)O)CCC1.[NH2-].[NH2-].[Pt+2] [carboplatin] — higher, 2.04
- NC(=O)Nc1cc(-c2cccc(F)c2)sc1C(=O)N[C@H]1CCCNC1 [AZD7762] — higher, 1.85
- Nc1ccn([C@@H]2O[C@H](CO)[C@@H](O)C2(F)F)c(=O)n1 [gemcitabine] — lower, 1.31
- CC1(C)CCC(c2ccc(Cl)cc2)=C(CN2CCN(c3ccc(C(=O)NS(=O)(=O)c4ccc(N[C@H](CCN5CCOCC5)CSc5ccccc5)c(S(=O)(=O)C(F)(F)F)c4)cc3)CC2)C1 [navitoclax] — higher, 2.17
- CN(Cc1cnc2nc(N)nc(N)c2n1)c1ccc(C(=O)N[C@@H](CCC(=O)O)C(=O)O)cc1 [methotrexate] — higher, 2.05
- C=CCn1c(=O)c2cnc(Nc3ccc(N4CCN(C)CC4)cc3)nc2n1-c1cccc(C(C)(C)O)n1 [adavosertib] — higher, 1.68
- C[C@@H]1COCCN1c1cc(C2([S@](C)(=N)=O)CC2)nc(-c2cc[nH]c3nccc2-3)n1 [ceralasertib] — higher, 1.77
- CCN1CCN(Cc2ccc(Nc3ncc(F)c(-c4cc(F)c5nc(C)n(C(C)C)c5c4)n3)nc2)CC1 [abemaciclib] — higher, 1.87

Same assay, conditions: 0.005 µM; days in culture: 346

Point of comparison: `COc1cccc2c1C(=O)c1c(O)c3c(c(O)c1C2=O)C[C@@](O)(C(=O)CO)C[C@@H]3O[C@H]1C[C@H](N)[C@H](O)[C@H](C)O1` [doxorubicin], “CTG-3D luminescence at 96 h” value 1.02. Against it:
- O=C(O)C1(C(=O)O)CCC1.[NH2-].[NH2-].[Pt+2] [carboplatin] — higher, 1.03
- NC(=O)Nc1cc(-c2cccc(F)c2)sc1C(=O)N[C@H]1CCCNC1 [AZD7762] — higher, 1.23
- Nc1ccn([C@@H]2O[C@H](CO)[C@@H](O)C2(F)F)c(=O)n1 [gemcitabine] — higher, 1.1
- CC1(C)CCC(c2ccc(Cl)cc2)=C(CN2CCN(c3ccc(C(=O)NS(=O)(=O)c4ccc(N[C@H](CCN5CCOCC5)CSc5ccccc5)c(S(=O)(=O)C(F)(F)F)c4)cc3)CC2)C1 [navitoclax] — higher, 1.38
- CN(Cc1cnc2nc(N)nc(N)c2n1)c1ccc(C(=O)N[C@@H](CCC(=O)O)C(=O)O)cc1 [methotrexate] — higher, 1.28
- C=CCn1c(=O)c2cnc(Nc3ccc(N4CCN(C)CC4)cc3)nc2n1-c1cccc(C(C)(C)O)n1 [adavosertib] — higher, 1.22
- CC(C)(C(=O)NCC(F)(F)C(F)(F)F)C(=O)N[C@@H]1C(=O)Nc2ccccc2-c2ccccc21 — higher, 1.17
- C[C@@H]1COCCN1c1cc(C2([S@](C)(=N)=O)CC2)nc(-c2cc[nH]c3nccc2-3)n1 [ceralasertib] — higher, 1.38
- CCN1CCN(Cc2ccc(Nc3ncc(F)c(-c4cc(F)c5nc(C)n(C(C)C)c5c4)n3)nc2)CC1 [abemaciclib] — higher, 1.18

Same assay, conditions: 0.005 µM; days in culture: 364

Point of comparison: `C=CCn1c(=O)c2cnc(Nc3ccc(N4CCN(C)CC4)cc3)nc2n1-c1cccc(C(C)(C)O)n1` [adavosertib], “CTG-3D luminescence at 96 h” value 1.37. Against it:
- COc1cccc2c1C(=O)c1c(O)c3c(c(O)c1C2=O)C[C@@](O)(C(=O)CO)C[C@@H]3O[C@H]1C[C@H](N)[C@H](O)[C@H](C)O1 [doxorubicin] — lower, 1.3
- O=C(O)C1(C(=O)O)CCC1.[NH2-].[NH2-].[Pt+2] [carboplatin] — higher, 1.54
- NC(=O)Nc1cc(-c2cccc(F)c2)sc1C(=O)N[C@H]1CCCNC1 [AZD7762] — higher, 1.51
- Nc1ccn([C@@H]2O[C@H](CO)[C@@H](O)C2(F)F)c(=O)n1 [gemcitabine] — lower, 1.3
- CC1(C)CCC(c2ccc(Cl)cc2)=C(CN2CCN(c3ccc(C(=O)NS(=O)(=O)c4ccc(N[C@H](CCN5CCOCC5)CSc5ccccc5)c(S(=O)(=O)C(F)(F)F)c4)cc3)CC2)C1 [navitoclax] — higher, 1.61
- CN(Cc1cnc2nc(N)nc(N)c2n1)c1ccc(C(=O)N[C@@H](CCC(=O)O)C(=O)O)cc1 [methotrexate] — higher, 1.45
- CC(C)(C(=O)NCC(F)(F)C(F)(F)F)C(=O)N[C@@H]1C(=O)Nc2ccccc2-c2ccccc21 — higher, 1.38
- C[C@@H]1COCCN1c1cc(C2([S@](C)(=N)=O)CC2)nc(-c2cc[nH]c3nccc2-3)n1 [ceralasertib] — lower, 1.23
- CCN1CCN(Cc2ccc(Nc3ncc(F)c(-c4cc(F)c5nc(C)n(C(C)C)c5c4)n3)nc2)CC1 [abemaciclib] — higher, 1.38

Same assay, conditions: 0.1 µM; days in culture: 240

Point of comparison: `COc1cccc2c1C(=O)c1c(O)c3c(c(O)c1C2=O)C[C@@](O)(C(=O)CO)C[C@@H]3O[C@H]1C[C@H](N)[C@H](O)[C@H](C)O1` [doxorubicin], “CTG-3D luminescence at 96 h” value 1.06. Against it:
- O=C(O)C1(C(=O)O)CCC1.[NH2-].[NH2-].[Pt+2] [carboplatin] — higher, 1.27
